Values of other authors in US20220265792A1, “METHODS FOR TREATING SOLID TUMORS” (Breakbio Corp., priority 2019, published 2022).

How the values were obtained:
Renal Cell Carcinoma = settings: human, in vivo
Treg cells = settings: 50 mg bid seven days, seven days off, another seven days of 50 mg bid
mCRC patients = settings: 20 μg/Kg/day for 14 days, 1 to 3 cycles

## COc1cc2nccc(Oc3ccc(NC(=O)NC4CC4)c(Cl)c3)c2cc1C(N)=O [Lenvatinib]
Colorectal cancer
  clinical effect as monotherapy: modest clinical effect

## Bevacizumab: monoclonal antibody binding circulating VEGF-A
Renal Cell Carcinoma
  intra-tumoral T-cell infiltration: augmented intra-tumoral T-cell infiltration

## O=P1(N(CCCl)CCCl)NCCCO1 (racemic) [cyclophosphamide, (RS)—N,N-bis(2-chloroethyl)-1,3,2-oxazaphosphinan-2-amine 2-oxide]
Treg cells
  effect on Treg cells: significantly depleted Treg cells

## CNC(=O)c1cc(Oc2ccc(NC(=O)Nc3ccc(Cl)c(C(F)(F)F)c3)c(F)c2)ccn1 [regorafenib]
lung, pancreatic
  clinical activity as single agent: modest clinical activity

B1: FLT3L: FMS-like tyrosine kinase 3 ligand, expands and mobilizes antigen presenting cells (protein, UniProt P49771 27-235, looked up)
Fms-related tyrosine kinase 3 …: TQDCSFQHSPISSDFAVKIRELSDYLLQDYPVTVASNLQDEELCGGLWRLVLAQRWMERLKTVAGSKMQGLLERVNTEIHFVTKCAFQPPPSCLRFVQTNISRLLQETSEQLVALKPWITRQNFSRCLELQCQPDSSTLPPPWSPRPLEATAPTAPQPPLLLLLLLPVGLLLLAAAWCLHWQRTRRRTPRPGEQVPPVPSPQDLLLVEH
mCRC patients
  number of APCs observed on the periphery of tumors: significantly increased
mCRC patients; from 2.4%
  percentage of APCs in PBMCs: 8.8%
mCRC patients; from 5,900/mm^3
  number of leukocytes in peripheral blood: 11,200 /mm^3
